Measured values taken from PubChem BioAssay AID1645871.

Conditions: pampa; pH 5.0; 30.0 min; 50.0 µM

Compound | Papp [×10⁻⁶ cm/s]
COc1ccc(-c2noc(CSc3nnc(Cc4ccccc4)n3-c3ccc(F)cc3)n2)cc1 | > 1000
c1ccc(Nc2cc3c(cn2)CN(Cc2ccsc2)CCN3)cc1 | 15.3
CCc1cccc(NC(=O)CSc2nc3ccccc3nc2N2CCCCC2)c1 | 351
COc1ccc(S(=O)(=O)N(CC(=O)Nc2ccc(C)cc2)c2ccc(C)cc2)cc1OC | 663
CN(C)CC/C=C1\c2ccccc2Sc2ccc(Cl)cc21 | 531
CN1CCN(Cc2ccc(-c3ccc(C(C)(C)C#N)cc3)nc2)CC1 | 47.3
COc1ccccc1Nc1ccnc(N2CCN(C(=O)c3ccccc3Cl)CC2)n1 | 35.8
Cc1ccccc1C(=O)Nc1ccc2c(c1)CCCN2C(=O)c1cccs1 | 561
Cc1n[nH]c(C)c1CCc1nc2c3ccccc3nc(SCC(=O)Nc3ccc(F)cc3)n2n1 | 383
O=c1[nH]c(N2CCOCC2)nc2c1CCN(Cc1ccc(Cl)cc1F)CC2 | 71.2
CCOC(=O)c1ccc(N2C(=O)c3n[nH]c(-c4cccs4)c3C2c2ccc(Cl)cc2Cl)cc1 (centres undefined) | 316
O=C1CN(C(=O)CCC(=O)N2CCc3c(nc4cc(-c5ccccc5)[nH]n4c3=O)C2)c2ccccc2N1 | 6.84
CNc1oc(-c2cccc(Cl)c2Cl)nc1C#N | 589
O=C(O)C1CCN(c2ncc(-c3ccc4c(c3)OCCCO4)s2)CC1 | > 1000
COc1cc2c(c(OC)c1OC)-c1ccc(SC)c(=O)cc1C(N)CC2 (centres undefined) | 55
CCC(=O)N1CCN(c2ccc(-n3c(=O)ccc4cnc5ccc(-c6cnc7ccccc7c6)cc5c43)cc2C(F)(F)F)CC1 | 537
CN(C)CCOC1=Cc2ccccc2Sc2ccc(Cl)cc21 | 857
COc1ccc(-c2cc(-c3ccccc3)nc(SCC(=O)Nc3ccccc3C)c2C#N)cc1 | 587
O=C(Nc1ccc(Oc2ccnc3[nH]ccc23)c(F)c1)c1cccn(-c2ccc(F)cc2)c1=O | 9.36
COc1ccccc1NC(=O)C1=C(C)Nc2c(C(=O)Nc3cccc(C)c3)cnn2C1c1ccccc1Cl (centres undefined) | 156
O=c1[nH]c(C2CCCN(CC3CCCCC3)C2)nn1-c1ccc(Cl)cc1 (centres undefined) | > 1000
CNc1nc(-c2ccc3c(N)n[nH]c3c2)cc(N2C[C@@H](C(=O)NC3CCCCC3)CC[C@H]2C)n1 | 26.1
COc1cc(C(=O)N2CCN(c3cc(Cl)ccc3Cl)CC2)cc(OC)c1OC | > 1000
Fc1ccc(CN2CCNc3cc(Nc4ccccc4)ncc3C2)cc1F | 340
CC(=O)N1CCc2c(sc3c2c(=O)n(-c2ccccc2Cl)c(=O)n3Cc2cccc(C)c2)C1 | 687
CS(=O)(=O)c1ccc(-c2cnc(NCc3ccco3)n3cnnc23)cc1 | 13.6

Compound | Papp [×10⁻⁶ cm/s]
Cc1ccc(NC2=C(c3ccc(C(F)(F)F)cc3)C(=O)c3ccccc32)cc1F | 574
CN1CCC(N(Cc2cccs2)c2ccccc2)CC1 | 254
Cc1cc(Br)ccc1NC(=O)C(NS(=O)(=O)c1cccs1)c1ccccc1 (centres undefined) | 79.4
Cc1nn2c(c1-c1ccccc1-c1ccccc1)N(Cc1ccc(C(=O)O)s1)CCC2 | 523
Cc1ccc(CN2C(=O)C(O)(CC(=O)c3ccc(C)cc3)c3ccccc32)cc1 (centres undefined) | 626
CC(C)(C)C(=O)N1CCN(c2nccc(Nc3ccccc3Cl)n2)CC1 | 895
COc1ccc(C(=O)N2CCCC(c3nn(-c4ccc(OC)cc4)c(=O)[nH]3)C2)cc1 (centres undefined) | 255
COCC(C)NCc1cc2ccc(OC)cc2nc1N1CCN(c2ccc(F)cc2)CC1 (centres undefined) | 576
COc1ccccc1-c1nnc2sc(-c3ccc(N(C)C)cc3)nn12 | > 1000
COc1ccc(-n2nc(C3CCN([S+](=O)([O-])c4c(C)noc4C)CC3)[nH]c2=O)cc1 | 308
CCc1cc(Cl)c(OC)c(C(=O)NC[C@@H]2CCCN2CC)c1O | 899
Cn1nnnc1Sc1ncnc2scc(-c3ccccc3F)c12 | 451
Cc1ccc(NC(=O)c2c(N3CCCC3=O)c3cc(C)ccc3n2C)c(C)c1 | > 1000
CCCN1C(CC(C)C)=NS(=O)(=O)c2cc(NC(=O)c3ccco3)ccc21 | 239
O=C1Nc2ccc(-c3cccc(C(F)(F)F)c3)cc2C(=O)N2CCN(C(=O)COc3ccccc3)C[C@H]12 | 859
CCCNC(=O)c1ccc2c(c1)N=C(C)c1c(C)ccc(C)c1S2 | > 1000
Cc1ccc(S(=O)(=O)Nc2ccccc2C(=O)Nc2nc(-c3ccccc3)cs2)cc1 | > 1000
CC(=O)NCCNC(=O)c1ccc(-c2ncc3cnc(-c4cccc(F)c4)cn23)cc1 | 7.62
CNC(=O)c1ccccc1Nc1nc(Nc2ccc(N3CCOCC3)cc2OC)ncc1Cl | 145
O=C(NC[C@H]1Cn2c(-c3ccc(Cl)cc3)cnc2CO1)C1CCCC1 | 19.4
CC(=O)Nc1ccc(CN2CCc3nc(C(C)C)nc(-c4ccc(Cl)cc4)c3CC2)cc1 | 476
C[C@]12N[C@H](Cc3ccccc31)c1ccccc12 | 72.8
CCOc1ccc(CCNC(=O)c2cc3ccccc3n2C)cc1OCC | > 1000
COc1cccc(C(=O)Nc2nnc(S(=O)(=O)N3CCOCC3)s2)c1 | 787
C[C@H]1CN(C(=O)Nc2ccc(F)cc2)C[C@@H]1c1nc(-c2ccccc2)no1 | 809
O=C(Cc1ccc(O)cc1)N1CC(CNc2ccccc2)C2(C1)CN(c1ccccc1)C2 (centres undefined) | 616

Compound | Papp [×10⁻⁶ cm/s]
CCCCCn1cc2c(c1-c1ccc(Br)cc1)c(=O)n(C)c(=O)n2C | 946
O=C(NCCCO)c1ccc(-c2ncc3cnc(-c4cccc(F)c4)cn23)cc1 | 21.2
Nc1c(-c2ccncc2)cc[nH]c1=O | 2.72
CCc1cccc(NC(=O)C(Cc2ccccc2)NS(=O)(=O)c2cccs2)c1 (centres undefined) | > 1000
O=C(O)c1cnc(-c2ccc(F)cc2)nc1-c1ccncc1 | 38.3
COc1ccccc1-c1nc(NCc2ccc(-c3cccnc3)cc2)c2ccccc2n1 | 727
COCCNC(=O)c1ccc(-c2ncc3cnc(-c4cccc(F)c4)cn23)cc1 | 283
O=C(Nc1ccc2c(N3CCOCC3)ncnc2c1)c1cccc(Br)c1 | 654
CC(C)n1cc(-c2ccc3c(c2)N(C)CC3)c2c(NS(=O)(=O)c3ccn(C)n3)ccnc21 | > 1000
NC(=O)c1ccc(-c2ncc3cnc(-c4cccc(F)c4)cn23)cc1 | 135
Cc1ccc(C(=O)NC2CCN(c3cnn(CC4CC4)c(=O)c3)CC2)cc1C | 498
CCOc1ccccc1C(=O)Nc1ncccc1C(=O)Nc1cccc(S(=O)(=O)C(F)(F)F)c1 | 656
CCN(CCCOc1ccc2c(Nc3cc(CC(=O)Nc4cccc(F)c4)[nH]n3)ncnc2c1)CCOP(=O)(O)O | 3.64
CCOC(=O)c1ccc(NC(=O)CSc2nc3c(cc2C#N)N2CCC3CC2)cc1 | 236
O=c1[nH]c(N2CCOCC2)nc2c1CCN(Cc1cc(Cl)ccc1F)CC2 | 46.3
NC(=O)N1CCCC(C(=O)N2CCCN(c3ccc(F)cc3)CC2)C1 (centres undefined) | 96.2
COc1ccc(Cn2c(C(=O)O)c(CNCc3ccco3)c3ccc(C)cc32)cc1 | 618
CN(C)c1ccc(CN2CCNc3cc(Nc4ccccc4)ncc3C2)cc1 | 107
Cc1ccc(CN2CCOC[C@H]2c2ncc(-c3cccc(F)c3)[nH]2)cc1 | 995
Cc1cccc(-c2noc([C@@H]3Cc4nc[nH]c4CN3)n2)c1 | 169
O=C(c1cc2ccccc2[nH]1)N1CCc2c(n(Cc3cccnc3)n(CCc3ccccc3)c2=O)C1 | 229
N#Cc1ccc(-c2ccc(CNc3ccc(C4CCNCC4)cc3)o2)cc1 | 236
Cc1nc(-c2ccco2)cc([C@H]2CN3CC[C@H]2C[C@@H]3CNC(=O)NC2CCCCC2)n1 | 4.96
COc1ccc(CCNC(=O)Cn2c(=O)c3cccn3c3ccc(F)cc32)cc1OC | 317
CN(C)CC[C@@H](c1ccc(Cl)cc1)c1ccccn1 | 82.5
Cc1cc(C)cc(C(=O)Nc2ccc3c(N4CCCC4)ncnc3c2)c1 | 506

Compound | Papp [×10⁻⁶ cm/s]
CCOC(=O)c1ccc(NC(=O)c2sc3nc4c(cc3c2N)N2CCC4CC2)cc1 | 720
CCC1=Nc2cc(C(=O)NC3CCCC3)ccc2Sc2ccc(Cl)cc21 | 640
CC(C)(C)c1ccc(C(=O)Nc2ccc3c(c2)CCCN3C(=O)c2cccs2)cc1 | 884
O=S(=O)(Nc1ccc(-c2cccnc2)c2cccnc12)c1cccc(C(F)(F)F)c1 | > 1000
CCOc1ccc(C2C(C(=O)Nc3ccccc3OC)=C(C)Nc3c(C(=O)Nc4cccc(C)c4)cnn32)cc1 (centres undefined) | 170
Cc1cccc(S(=O)(=O)c2cn(Cc3ccccc3)c3cc(N4CCCCC4C)c(F)cc3c2=O)c1 (centres undefined) | 485
CCOC(=O)N1CCN(Cc2nc3cc(NC(=O)c4ccc(OC)cc4)ccc3n2C(C)C)CC1 | 808
O=C(CCCN1CCC(n2c(=O)[nH]c3ccccc32)CC1)c1ccc(F)cc1 | 98.2
O=C(NC1CCCc2c1[nH]c1ccccc21)c1ccccc1 (centres undefined) | 680
CC[C@H]1CN2CCC3CC(OC)C(OC)CC3[C@@H]2C[C@@H]1C[C@H]1NCCC2=C1CC(OC)=C(O)C2 (some centres undefined) | 17.9
COc1ccc2[nH]cc(CCNC(=O)c3cnn(-c4ccc(C)cc4)c3C3CCN(C(=O)OC(C)(C)C)CC3)c2c1 | 689
O=C(COc1ccccc1)NCC(c1cccs1)S(=O)(=O)c1ccc(Cl)cc1 (centres undefined) | 855
CCn1cc(C(=O)N2CCN(c3cccc(Cl)c3)CC2)c2cc(OC)c(OC)cc2c1=O | 810
O=C(Nc1ccccc1-c1cn2c(CN3CCNCC3)csc2n1)c1cnc2ccccc2n1 | 342
CCOc1ccccc1C(=O)NC1CCN(c2cc(C)cc(C)c2)C1=O (centres undefined) | > 1000
CC(C)c1ccc(CC(=O)N2CCCc3ncc(C(=O)Nc4cccnc4)cc32)cc1 | 932
Cc1ccc(-c2ccc(CNc3nc(-c4ccccc4C(C)C)nc4ccccc34)cc2)cn1 | 857
O=C(Nc1ccc(N2CCC(N3CCCCC3)CC2)c(C(=O)O)c1)c1ccc(Br)cc1 | 7.15
CN1Cc2c(cc(N3CCOCC3)nc2-c2ccccc2OC(F)(F)F)C1=O | > 1000
CC(=O)Nc1ccc(C(=O)Nc2ccc3c(c2)N(C2CCCC2)C(=O)c2ccccc2S3)cc1 | 511
COc1cccc(N2CCN(c3ncc4c(n3)CCN(Cc3ccc(Br)cc3)C4)CC2)c1 | 939
CCN(CC)CCOc1ccc(Cc2ccccc2)cc1 | 236
c1cc(-c2cc(-c3ccncc3)c3cncn3c2)c2cc[nH]c2c1 | 21.7
Cc1nn2c(c1-c1ccccc1OCc1ccccc1)N(C(=O)Cc1ccc3c(c1)OCO3)CCC2 | > 1000
Cc1noc(C)c1Cc1ccc(C(=O)N2CCc3c(nc4cc(-c5ccccc5)[nH]n4c3=O)C2)o1 | 9.03
COc1ccc2[nH]c3c(c2c1)CCNC31CCN(S(=O)(=O)c2c(C)noc2C)CC1 | 161
